Test results reported in patent US20240041042A1, “1-(PYRIDYL)-5-AZINYLPYRAZOLE DERIVATIVES, AND THEIR USE FOR CONTROL OF UNDESIRED PLANT GROWTH” (Bayer Aktiengesellschaft, priority 2020, published 2024).
Like-named read-outs stand apart in the source and are kept apart here.

Columns and labels:
Type in all cases: in vivo
[1] = system: Polygonum convolvulus (POLCO); assay: Post-emergence herbicidal action against POLCO; conditions: dosage 320 g/ha
Method in brief: (§1)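 Values are percent visual activity (0% like control, 100% plants dead) after about 3 weeks in the greenhouse. Treatment: post-emergence spray at one-leaf stage, 600 l/ha spray volume, 0.5% additive, doses 320 g/ha or lower.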

[2] = system: Echinochloa crus-galli (ECHCG); assay: Post-emergence herbicidal action against ECHCG
Method in brief: as §1

Setaria viridis (SETVI) [3] = assay: Pre-emergence herbicidal action against SETVI
Method in brief: (§2)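 Herbicide applied to soil before seedling emergence, at 600 l/ha spray volume with 0.5% additive and rates up to 320 g/ha. Evaluation: visual percentage effect, about 3 weeks later, greenhouse-grown pots compared with untreated ones.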

Avena fatua (AVEFA) [4] = assay: Pre-emergence herbicidal action against AVEFA; conditions: 320 g/ha, visual scoring after about 3 weeks vs untreated controls
Method in brief: as §2

[5] = system: Amaranthus retroflexus (AMARE); assay: Pre-emergence herbicidal action against AMARE; conditions: visual scoring after about 3 weeks vs untreated controls
Method in brief: as §2

Oryza sativa (ORYSA) [6] = conditions: crop plant compatibility
Method in brief: (§3)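 Foliar application at the one-leaf stage: WP/EC formulation, 0.5% additive, 600 l/ha water. Greenhouse-grown in sandy loam. Endpoint is visual % injury relative to untreated controls at about 3 weeks.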

Zea mays (ZEAMX) = conditions: for Post-emergence action against ZEAMX in %: crop plant compatibility, 80 g/ha, effect vs untreated controls
Method in brief: as §3

Avena fatua (AVEFA) [7] = assay: Post-emergence herbicidal action against AVEFA; conditions: visual rating about 3 weeks after treatment
Method in brief: as §1

[8] = system: Pharbitis purpurea (PHBPU); assay: Post-emergence herbicidal action against PHBPU
Method in brief: as §1

[9] = system: Verconica persica (VERPE); assay: Post-emergence herbicidal action against VERPE
Method in brief: as §1

[10] = system: Amaranthus retroflexus (AMARE); assay: Post-emergence herbicidal action against AMARE
Method in brief: as §1

Lolium rigidum (LOLRI) [11] = assay: Pre-emergence herbicidal action against LOLRI
Method in brief: as §2

[12] = system: Matricaria inodora (MATIN); assay: Pre-emergence herbicidal action against MATIN
Method in brief: as §2

[13] = system: Abutilon theophrasti (ABUTH); assay: Post-emergence herbicidal action against ABUTH; conditions: visual rating about 3 weeks after treatment vs untreated controls (100% = plants have died, 0% = like control plants)
Method in brief: as §1

[14] = system: Alopecurus myosuroides (ALOMY); assay: Pre-emergence herbicidal action against ALOMY; conditions: scored visually after about 3 weeks, 100% = plants have died
Method in brief: as §2

Viola tricolor (VIOTR) [15] = assay: Pre-emergence herbicidal action against VIOTR
Method in brief: as §2

[16] = system: Pharbitis purpurea (PHBPU); assay: Pre-emergence herbicidal action against PHBPU; conditions: dosage 320 g/ha
Method in brief: as §2

[17] = system: Alopecurus myosuroides (ALOMY); assay: Post-emergence herbicidal action against ALOMY; conditions: visual rating about 3 weeks after treatment vs untreated controls (100% = plants have died, 0% = like control plants)
Method in brief: as §1

[18] = system: Polygonum convolvulus (POLCO); assay: Pre-emergence herbicidal action against POLCO
Method in brief: as §2

Lolium rigidum (LOLRI) [19] = assay: Post-emergence herbicidal action against LOLRI
Method in brief: as §1

[20] = system: Verconica persica (VERPE); assay: Pre-emergence herbicidal action against VERPE
Method in brief: as §2

Viola tricolor (VIOTR) [21] = assay: Post-emergence herbicidal action against VIOTR
Method in brief: as §1

[22] = system: Matricaria inodora (MATIN); assay: Post-emergence herbicidal action against MATIN
Method in brief: as §1

[23] = system: Echinochloa crus-galli (ECHCG); assay: Pre-emergence herbicidal action against ECHCG
Method in brief: as §2

Oryza sativa (ORYSA) [24] = conditions: pre-emergence, 80 g/ha, crop plant compatibility, in comparison to untreated controls
Method in brief: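 Scoring: visual, % of untreated control, about 3 weeks after a pre-emergence application to the soil surface. Application used WP or EC formulations diluted in water with 0.5% additive at 600 l/ha; dosage levels are marked by suffixes a, b and c.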

Setaria viridis (SETVI) [25] = assay: Post-emergence herbicidal action against SETVI
Method in brief: as §1

[26] = 80 g/ha, effect in comparison to untreated controls
[27] = 320 g/ha, visual rating about 3 weeks after treatment

Row | SMILES | Post-emergence action against ECHCG in % ([2]; dosage 80 g/ha) [%] | Pre-emergence action against SETVI in % (Setaria viridis (SETVI) [3]; dosage 320 g/ha) [%] | Pre-emergence action against AVEFA in % (Avena fatua (AVEFA) [4]) [%] | Pre-emergence action against AMARE in % ([5]; 80 g/ha) [%] | Pre-emergence action against AMARE in % ([5]; 320 g/ha) [%] | Post-emergence action against ORYSA in % (Oryza sativa (ORYSA) [6]; [26]) [%] | Post-emergence action against VERPE in % ([9]; dosage 80 g/ha) [%] | Pre-emergence action against LOLRI in % (Lolium rigidum (LOLRI) [11]; dosage 320 g/ha) [%] | Pre-emergence action against MATIN in % ([12]; dosage 320 g/ha) [%] | Pre-emergence action against ALOMY ([14]; 80 g/ha) [%] | Pre-emergence action against ALOMY ([14]; 320 g/ha) [%] | Pre-emergence action against VIOTR in % (Viola tricolor (VIOTR) [15]; 320 g/ha, Viola tricolor) [%] | Pre-emergence action against VIOTR in % (Viola tricolor (VIOTR) [15]; dosage 80 g/ha) [%] | Pre-emergence action against PHBPU in % [16] [%] | Post-emergence action against ALOMY in % ([17]; 80 g/ha) [%] | Pre-emergence action against POLCO in % ([18]; dosage 320 g/ha) [%] | Post-emergence action against LOLRI in % (Lolium rigidum (LOLRI) [19]; dosage 80 g/ha) [%] | Pre-emergence action against VERPE in % ([20]; dosage 320 g/ha) [%] | Pre-emergence action against ECHCG in % ([23]; dosage 320 g/ha) [%] | Pre-emergence action against ORYSA in % (Oryza sativa (ORYSA) [24]) [%] | also measured
1 | COC(=O)COc1nn(-c2nc(F)ccc2F)c(-c2ccc(F)nc2)c1Br [Example I-369] | 80 | 90 | 80 | 90 | 90 | 20 | 80 | 90 | 90 | 80 | 100 | 100 | 80 | 90 | 80 | 90 | 80 | 90 | 100 | 20 | Post-emergence action against POLCO in % [1]: 80%; Post-emergence action against ECHCG in % ([2]; dosage 320 g/ha): 80%; Post-emergence action against ZEAMX in % (Zea mays (ZEAMX)): 10%; Post-emergence action against AVEFA in % (Avena fatua (AVEFA) [7]; 320 g/ha): 80%; Post-emergence action against PHBPU in % ([8]; dosage 80 g/ha): 80%; Post-emergence action against PHBPU in % ([8]; dosage 320 g/ha): 90%; Post-emergence action against VERPE in % ([9]; 320 g/ha, VERPE): 80%; Post-emergence action against AMARE in % [10, 27]: 80%; Pre-emergence action against MATIN in % ([12]; dosage 80 g/ha): 80%; Post-emergence action against ABUTH in % ([13]; 320 g/ha): 80%; Post-emergence action against ALOMY in % ([17]; 320 g/ha): 100%; Post-emergence action against LOLRI in % (Lolium rigidum (LOLRI) [19]; dosage 320 g/ha): 90%; Pre-emergence action against VERPE in % ([20]; dosage 80 g/ha): 90%; Post-emergence action against VIOTR in % (Viola tricolor (VIOTR) [21]; 80 g/ha): 80%; Post-emergence action against VIOTR in % (Viola tricolor (VIOTR) [21]; 320 g/ha): 80%; Post-emergence action against MATIN in % ([22]; dosage 320 g/ha): 80%
2 | CCOC(=O)[C@@H](C)Oc1nn(-c2nc(F)ccc2F)c(-c2ccc(F)nc2)c1Br [Example I-336] | 80 | 100 | 90 | 90 | 100 | 20 | 80 | 100 | 90 | 80 | 100 | 100 | 90 | 80 | 90 | 90 | 80 | 90 | 100 | 20 | Post-emergence action against POLCO in % [1]: 80%; Post-emergence action against ECHCG in % ([2]; dosage 320 g/ha): 80%; Post-emergence action against AVEFA in % (Avena fatua (AVEFA) [7]; 80 g/ha): 80%; Post-emergence action against AVEFA in % (Avena fatua (AVEFA) [7]; 320 g/ha): 90%; Post-emergence action against PHBPU in % ([8]; dosage 80 g/ha): 90%; Post-emergence action against PHBPU in % ([8]; dosage 320 g/ha): 100%; Post-emergence action against VERPE in % ([9]; 320 g/ha, VERPE): 90%; Post-emergence action against AMARE in % [10, 27]: 80%; Pre-emergence action against LOLRI in % (Lolium rigidum (LOLRI) [11]; dosage 80 g/ha): 80%; Pre-emergence action against MATIN in % ([12]; dosage 80 g/ha): 80%; Post-emergence action against ABUTH in % ([13]; 320 g/ha): 80%; Post-emergence action against ALOMY in % ([17]; 320 g/ha): 90%; Pre-emergence action against POLCO in % ([18]; dosage 80 g/ha): 80%; Post-emergence action against LOLRI in % (Lolium rigidum (LOLRI) [19]; dosage 320 g/ha): 80%; Pre-emergence action against VERPE in % ([20]; dosage 80 g/ha): 80%; Post-emergence action against VIOTR in % (Viola tricolor (VIOTR) [21]; 320 g/ha): 80%; Pre-emergence action against ECHCG in % ([23]; dosage 80 g/ha): 80%; Post-emergence action against SETVI in % (Setaria viridis (SETVI) [25]; dosage 320 g/ha): 80%
3 | COCCOC(=O)[C@@H](C)Oc1nn(-c2ncccc2F)c(-c2ccc(F)nc2)c1Br [Example I-35] | 90 | 100 | 100 | 100 | 100 | 0 | 100 | 100 | 100 | 90 | 100 | 100 | 100 | 90 | 90 | 90 | 90 | 100 | 100 | 20 | Pre-emergence action against SETVI in % (Setaria viridis (SETVI) [3]; dosage 80 g/ha): 100%; Post-emergence action against ORYSA in % (Oryza sativa (ORYSA) [6]; 20 g/ha, effect vs untreated controls): 0%; Post-emergence action against ZEAMX in % (crop plant compatibility) (Zea mays (ZEAMX); 20 g/ha, ZEAMX, effect in comparison to untreated controls): 10%; Post-emergence action against ZEAMX in % (Zea mays (ZEAMX)): 10%; Post-emergence action against AVEFA in % (Avena fatua (AVEFA) [7]; 80 g/ha): 100%; Post-emergence action against AMARE in % ([10]; 80 g/ha, visual rating about 3 weeks after treatment vs untreated controls (100% = plants have died, 0% = like control plants)): 100%; Pre-emergence action against LOLRI in % (Lolium rigidum (LOLRI) [11]; dosage 80 g/ha): 90%; Post-emergence action against ABUTH in % ([13]; 80 g/ha): 90%; Post-emergence action against VIOTR in % (Viola tricolor (VIOTR) [21]; 80 g/ha): 90%; Post-emergence action against MATIN in % ([22]; dosage 80 g/ha): 90%; Pre-emergence action against ECHCG in % ([23]; dosage 80 g/ha): 90%; Post-emergence action against SETVI in % (Setaria viridis (SETVI) [25]; dosage 80 g/ha): 100%
